Data published in patent US6465395B2, “Substituted methylene pyrazolinones and the herbicidal use thereof” (BASF Aktiengesellschaft, priority 2000, dated 2002).

Tests used:
Type in all cases: in vivo
[1] = test system: GOSHI, Cotton, Gossypium hirsutum, L.; assay: Postemergence herbicidal evaluation; settings: crop (cotton)
Description: (§1) The postemergence herbicidal activity of the compounds of the present invention is evaluated by the following tests. Seedling plants are grown in jiffy flats for about two weeks. The test compounds are dispersed in 80/20 (v/v) acetone/water mixtures containing 1.0% SUN-IT®II, a methylated seed oil, in sufficient quantities to provide the equivalent of about 0.006 kg/ha to 0.800 kg/ha of active compound when applied to the plants through a spray nozzle operating at 40 psi for a predetermined time. After spraying, the plants are placed on greenhouse benches and are cared for in accordance with conventional greenhouse procedures. Approximately two to three weeks after treatment, the seedling plants are examined and rated according to the rating system set forth below. Where more than one test is involved for a given compound, the data are averaged.

[2] = test system: PANDI, Panicum, Fall, Panicum dichotomiflorum, Michx; assay: Postemergence herbicidal evaluation
Description: as §1

[3] = test system: AMBEL, Ragweed, Ambrosia artemisifolia, L.; assay: Postemergence herbicidal evaluation
Description: as §1

[4] = test system: SETVI, Foxtail, Green, Setaria viridis, (L.) Beau; assay: Postemergence herbicidal evaluation
Description: as §1

[5] = test system: CHEAL, Lambsquarters, Chenopodium album, L.; assay: Postemergence herbicidal evaluation
Description: as §1

[6] = test system: ECHCG, Barnyardgrass, Echinochloa crus-galli, (L.) Beau; assay: Postemergence herbicidal evaluation
Description: as §1

[7] = test system: IPOSS, Morningglory spp., Ipomoea spp.; assay: Postemergence herbicidal evaluation
Description: as §1

[8] = test system: ZEAMX, Corn, Field, Zea mays, L.; assay: Postemergence herbicidal evaluation; settings: crop (corn)
Description: as §1

[9] = test system: ABUTH, Velvetleaf, Abutilon theophrasti, Medic.; assay: Postemergence herbicidal evaluation
Description: as §1

[10] = test system: ORYSAT, Rice, Tebonnet, Oryza sativa, (L.) Tebonnet; assay: Postemergence herbicidal evaluation; settings: crop (rice)
Description: as §1

[11] = test system: PANDI, Panicum, Fall, Panicum dichotomiflorum, Michx; assay: Preemergence herbicidal evaluation
Source text: (§2) The preemergence herbicidal activity of the test compounds of the present invention is exemplified by the following tests in which the seeds of a variety of monocotyledonous and dicotyledonous plants are separately mixed with potting soil and planted on top of approximately one inch of soil in separate pint cups. After planting, the cups are sprayed with the selected aqueous acetone solution containing test compound in sufficient quantity to provide the equivalent of about 0.0125 kg/ha to 0.800 kg/ha of test compound per cup. The treated cups are then placed on greenhouse benches, watered and cared for in accordance with conventional greenhouse procedures. Approximately two to four weeks after treatment, the tests are terminated and each cup is examined and rated according to the rating system provided in Example 12. When more than one test is performed for a given compound, the data are averaged.

[12] = test system: GOSHI, Cotton, Gossypium hirsutum, L.; assay: Preemergence herbicidal evaluation; settings: crop (cotton)
Source text: as §2

[13] = test system: AMBEL, Ragweed, Ambrosia artemisifolia, L.; assay: Preemergence herbicidal evaluation
Source text: as §2

[14] = test system: SETVI, Foxtail, Green, Setaria viridis, (L.) Beau; assay: Preemergence herbicidal evaluation
Source text: as §2

[15] = test system: CHEAL, Lambsquarters, Chenopodium album, L.; assay: Preemergence herbicidal evaluation
Source text: as §2

[16] = test system: ECHCG, Barnyardgrass, Echinochloa crus-galli, (L.) Beau; assay: Preemergence herbicidal evaluation
Source text: as §2

[17] = test system: IPOSS, Morningglory spp., Ipomoea spp.; assay: Preemergence herbicidal evaluation
Source text: as §2

[18] = test system: ZEAMX, Corn, Field, Zea mays, L.; assay: Preemergence herbicidal evaluation; settings: crop (corn)
Source text: as §2

[19] = test system: ABUTH, Velvetleaf, Abutilon theophrasti, Medic.; assay: Preemergence herbicidal evaluation
Source text: as §2

[20] = test system: ORYSAT, Rice, Tebonnet, Oryza sativa, (L.) Tebonnet; assay: Preemergence herbicidal evaluation; settings: crop (rice)
Source text: as §2

With `CCCS/C(=C1/C=NN(CC)C1=O)c1ccc2c(c1C)/C(=N/OC)CCS2(=O)=O` [Example 8b, 1-Ethyl-4-[(Z)-(5-methyl-4-oxothiochroman-6-yl)(propythio)methylene]-2-pyrazolin-5-one 4′-[(E)-O-methyloxime], S,S-dioxide] the “Herbicide rating GOSHI” value ([1]; 0.0500 kg/ha) was 0.0, the “Herbicide rating GOSHI” value ([1]; 0.1000 kg/ha) was 0.0 and the “Herbicide rating GOSHI” value ([1]; 0.2000 kg/ha) was 0.0. The “Herbicide rating GOSHI” value ([1]; 0.4000 kg/ha) was 4.0, the “Herbicide rating GOSHI” value ([1]; 0.8000 kg/ha) was 4.5 and the “Herbicide rating PANDI” value ([2]; 0.0500 kg/ha) was 2.0. For the same compound, the “Herbicide rating PANDI” value ([2]; 0.1000 kg/ha) was 6.0, the “Herbicide rating PANDI” value ([2]; 0.2000 kg/ha) was 7.0 and the “Herbicide rating PANDI” value ([2]; 0.4000 kg/ha) was 7.0. The “Herbicide rating PANDI” value ([2]; 0.8000 kg/ha) was 6.0, the “Herbicide rating AMBEL” value ([3]; 0.0500 kg/ha) was 0.0 and the “Herbicide rating AMBEL” value ([3]; 0.1000 kg/ha) was 5.0. For the same compound, the “Herbicide rating AMBEL” value ([3]; 0.2000 kg/ha) was 7.0, the “Herbicide rating AMBEL” value ([3]; 0.4000 kg/ha) was 7.0 and the “Herbicide rating AMBEL” value ([3]; 0.8000 kg/ha) was 7.0. For the same compound, the “Herbicide rating SETVI” value ([4]; 0.0500 kg/ha) was 3.5, the “Herbicide rating SETVI” value ([4]; 0.1000 kg/ha) was 3.5 and the “Herbicide rating SETVI” value ([4]; 0.2000 kg/ha) was 4.0. The “Herbicide rating SETVI” value ([4]; 0.4000 kg/ha) was 9.0, the “Herbicide rating SETVI” value ([4]; 0.8000 kg/ha) was 9.0 and the “Herbicide rating CHEAL” value ([5]; 0.0500 kg/ha) was 7.0. The “Herbicide rating CHEAL” value ([5]; 0.1000 kg/ha) was 8.0, the “Herbicide rating CHEAL” value ([5]; 0.2000 kg/ha) was 8.0 and the “Herbicide rating CHEAL” value ([5]; 0.4000 kg/ha) was 9.0. For the same compound, the “Herbicide rating CHEAL” value ([5]; 0.8000 kg/ha) was 9.0, the “Herbicide rating ECHCG” value ([6]; 0.0500 kg/ha) was 6.5 and the “Herbicide rating ECHCG” value ([6]; 0.1000 kg/ha) was 8.0. The “Herbicide rating ECHCG” value ([6]; 0.2000 kg/ha) was 8.0, the “Herbicide rating ECHCG” value ([6]; 0.4000 kg/ha) was 9.0 and the “Herbicide rating ECHCG” value ([6]; 0.8000 kg/ha) was 9.0. For the same compound, the “Herbicide rating IPOSS” value ([7]; 0.0500 kg/ha) was 0.0, the “Herbicide rating IPOSS” value ([7]; 0.1000 kg/ha) was 0.0 and the “Herbicide rating IPOSS” value ([7]; 0.2000 kg/ha) was 0.0. The “Herbicide rating IPOSS” value ([7]; 0.4000 kg/ha) was 0.0, the “Herbicide rating IPOSS” value ([7]; 0.8000 kg/ha) was 0.0 and the “Herbicide rating ZEAMX” value ([8]; 0.0500 kg/ha) was 0.0. For the same compound, the “Herbicide rating ZEAMX” value ([8]; 0.1000 kg/ha) was 0.0, the “Herbicide rating ZEAMX” value ([8]; 0.2000 kg/ha) was 0.0 and the “Herbicide rating ZEAMX” value ([8]; 0.4000 kg/ha) was 0.0. For the same compound, the “Herbicide rating ZEAMX” value ([8]; 0.8000 kg/ha) was 0.0, the “Herbicide rating ABUTH” value ([9]; 0.0500 kg/ha) was 1.0 and the “Herbicide rating ABUTH” value ([9]; 0.1000 kg/ha) was 0.0. For the same compound, the “Herbicide rating ABUTH” value ([9]; 0.2000 kg/ha) was 5.0, the “Herbicide rating ABUTH” value ([9]; 0.4000 kg/ha) was 5.0 and the “Herbicide rating ABUTH” value ([9]; 0.8000 kg/ha) was 6.0. The “Herbicide rating ORYSAT” value ([10]; 0.0500 kg/ha) was 1.0, the “Herbicide rating ORYSAT” value ([10]; 0.1000 kg/ha) was 1.7 and the “Herbicide rating ORYSAT” value ([10]; 0.2000 kg/ha) was 3.5. For the same compound, the “Herbicide rating ORYSAT” value ([10]; 0.4000 kg/ha) was 1.5, the “Herbicide rating ORYSAT” value ([10]; 0.8000 kg/ha) was 3.5 and the “Herbicide rating PANDI” value ([11]; 0.2000 kg/ha) was 2.0. The “Herbicide rating PANDI” value ([11]; 0.4000 kg/ha) was 7.0, the “Herbicide rating PANDI” value ([11]; 0.8000 kg/ha) was 7.0 and the “Herbicide rating GOSHI” value ([12]; 0.2000 kg/ha) was 0.0. For the same compound, the “Herbicide rating GOSHI” value ([12]; 0.4000 kg/ha) was 0.0, the “Herbicide rating GOSHI” value ([12]; 0.8000 kg/ha) was 0.0 and the “Herbicide rating AMBEL” value ([13]; 0.2000 kg/ha) was 0.0. For the same compound, the “Herbicide rating AMBEL” value ([13]; 0.4000 kg/ha) was 3.0, the “Herbicide rating AMBEL” value ([13]; 0.8000 kg/ha) was 6.0 and the “Herbicide rating SETVI” value ([14]; 0.2000 kg/ha) was 3.0. The “Herbicide rating SETVI” value ([14]; 0.4000 kg/ha) was 0.0, the “Herbicide rating SETVI” value ([14]; 0.8000 kg/ha) was 3.0 and the “Herbicide rating CHEAL” value ([15]; 0.2000 kg/ha) was 6.0. For the same compound, the “Herbicide rating CHEAL” value ([15]; 0.4000 kg/ha) was 7.0, the “Herbicide rating CHEAL” value ([15]; 0.8000 kg/ha) was 9.0 and the “Herbicide rating ECHCG” value ([16]; 0.2000 kg/ha) was 0.0. The “Herbicide rating ECHCG” value ([16]; 0.4000 kg/ha) was 0.0, the “Herbicide rating ECHCG” value ([16]; 0.8000 kg/ha) was 0.0 and the “Herbicide rating IPOSS” value ([17]; 0.2000 kg/ha) was 0.0. For the same compound, the “Herbicide rating IPOSS” value ([17]; 0.4000 kg/ha) was 0.0, the “Herbicide rating IPOSS” value ([17]; 0.8000 kg/ha) was 0.0 and the “Herbicide rating ZEAMX” value ([18]; 0.2000 kg/ha) was 0.0. The “Herbicide rating ZEAMX” value ([18]; 0.4000 kg/ha) was 0.0, the “Herbicide rating ZEAMX” value ([18]; 0.8000 kg/ha) was 0.0 and the “Herbicide rating ABUTH” value ([19]; 0.2000 kg/ha) was 0.0. For the same compound, the “Herbicide rating ABUTH” value ([19]; 0.4000 kg/ha) was 0.0, the “Herbicide rating ABUTH” value ([19]; 0.8000 kg/ha) was 9.0 and the “Herbicide rating ORYSAT” value ([20]; 0.2000 kg/ha) was 0.0. The “Herbicide rating ORYSAT” value ([20]; 0.4000 kg/ha) was 0.0 and the “Herbicide rating ORYSAT” value ([20]; 0.8000 kg/ha) was 0.0.
